Experimental data published in the NIST ThermoML archive (doi:10.1021/je500363r).
± gives the expanded uncertainty stated by the source.

Tests used:
[1] = Crystal; DTA
[2] = Molar enthalpy of transition or fusion; details: Crystal; DSC

| Compound | Normal melting temperature [1] [°C] | Molar enthalpy of transition or fusion [2] [kcal/mol] |
| --- | --- | --- |
| Br.CC(C)c1ccc(NC2=NCCC3(CCCCC3)[Se]2)cc1 | 148.4 ± 0.5 | 3.08 ± 0.239 |
| Br.Fc1ccc(NC2=NCCC3(CCCCC3)[Se]2)cc1 | 196.2 ± 0.5 | 6 ± 0.263 |
| Br.c1ccc(NC2=NCCC3(CCCCC3)[Se]2)cc1 | 144.8 ± 0.5 | 4.3 ± 0.263 |
